Laboratory results: patent US20100311694A1, “Set of Geldanamycin Derivatives and Their Preparation Methods” (Institute of Medicinal Biotechnology, Chinese Academy of …, priority 2008, published 2010)

What was measured:
HBV = assay: Anti-HBV activity (HBV DNA in cell lysate, spot hybridization); format: cell-based; details: HBV DNA content of the cells, reagent solution changed every 4 days
Procedure: Test Procedure for Anti-HBV Activity
Using cell culture method, the preparation of the cells to be tested (100,000 cell's/mL) is inoculated into cell culture plate in 100 μl each well and the cells are cultured 24 h at 37° C. in 5% CO2. Tests are carried out when the cells grow into a monolayer. The target compounds as well as the controls are prepared into a series of solutions of appropriate concentrations using the culture medium and are added into 96 well culture plate respectively in 4 wells per one concentration. Then the reagent solution in each well is changed into the fresh reagent solution with the same concentration every 4 days. A cell control without reagent treatment is simultaneously is set up. The observation index is based upon the pathological changes of the cells by observing the degrees of the pathological changes of the cells under microscope every 8 days. […] Cell control without drug treatment is simultaneously is set up. The reagent solution or control medium in each well is changed into the fresh reagent solution or fresh medium respectively every 4 days. After cytolysis of the cells, HBV DNA is extracted from the cell lysis solution according to the molecular cloning technical procedure. The spots of different samples are hybridized and the A values of different hybridized spots are measured using autoradiograghic technique. The HBV DNA contents in the cell control as well as in the drug treated samples are calculated using the regression equations obtained from the standard curves to obtain half effective concentration values, the results are shown in Table 1.

HIV-1 = assay: Anti HIV-1 activity (HIV-1 P24 antigen in cell cultures); format: cell-based; details: 4 days after addition of the reagents
Procedure: Test Procedure of Anti HIV-1 Activity
8 reagent solutions of different diluted concentrations and positive control solutions are added into cell cultures in 96 well plate respectively. The sample of each diluted solutions is made duplicately and a control cell sample is also is set up. 100 μl of cell sample at a concentration of 2×10^5cells/ml is inoculated into the wells containing reagent in the plate. The cells samples are cultured in a saturated humidity culture chamber (at a 5% CO2 atmosphere) at 37° C. The pathological changes of cells are observed daily.

SMILES: COC1C=CC=C(C)C(=O)NC2=CC(=O)C(Nn3cnnc3)=C(CC(C)CC(OC)C(O)C(C)C=C(C)C1OC(N)=O)C2=O (stereo not shown) [GM-W77]
- Activity of HBV inhibition IC50 (HBV): 7.36 µg/mL
- Activity of HIV inhibition IC50 (HIV-1): 8.97 µg/mL

SMILES: COC1C=CC=C(C)C(=O)NC2=CC(=O)C(NCCC3CC(CC(=O)OC(C)(C)C)OC(C)(C)O3)=C(CC(C)CC(OC)C(O)C(C)C=C(C)C1OC(N)=O)C2=O (stereo not shown) [GM-W79]
- Activity of HBV inhibition IC50 (HBV): 3.2 µg/mL
- Activity of HIV inhibition IC50 (HIV-1): 1.47 µg/mL

SMILES: CCOC(=O)N1CCC(NC2=C3CC(C)CC(OC)C(O)C(C)C=C(C)C(OC(N)=O)C(OC)C=CC=C(C)C(=O)NC(=CC2=O)C3=O)CC1 (stereo not shown) [GM-W80]
- Activity of HBV inhibition IC50 (HBV): 1.1 µg/mL
- Activity of HIV inhibition IC50 (HIV-1): 0.97 µg/mL

SMILES: COC1C=CC=C(C)C(=O)NC2=CC(=O)C(NC(CO)c3cc(Cl)cc(Cl)c3)=C(CC(C)CC(OC)C(O)C(C)C=C(C)C1OC(N)=O)C2=O (stereo not shown) [GM-W81]
- Activity of HBV inhibition IC50 (HBV): 2.3 µg/mL
- Activity of HIV inhibition IC50 (HIV-1): 2.46 µg/mL

SMILES: COC1C=CC=C(C)C(=O)NC2=CC(=O)C(NNC(=O)c3ccco3)=C(CC(C)CC(OC)C(O)C(C)C=C(C)C1OC(N)=O)C2=O (stereo not shown) [GM-W83]
- Activity of HBV inhibition IC50 (HBV): 3.2 µg/mL
- Activity of HIV inhibition IC50 (HIV-1): 3.56 µg/mL

SMILES: C=CC(C)(CCC=C(C)CCC=C(C)CCC=C(C)C)OC(=O)CCCNC1=C2CC(C)CC(OC)C(O)C(C)C=C(C)C(OC(N)=O)C(OC)C=CC=C(C)C(=O)NC(=CC1=O)C2=O (stereo not shown) [GM-W84]
- Activity of HBV inhibition IC50 (HBV): 0.8 µg/mL
- Activity of HIV inhibition IC50 (HIV-1): 1.24 µg/mL

SMILES: COC1C=CC=C(C)C(=O)NC2=CC(=O)C(NCCCC(=O)OCC=C(C)CCC=C(C)CCC=C(C)C)=C(CC(C)CC(OC)C(O)C(C)C=C(C)C1OC(N)=O)C2=O (stereo not shown) [GM-W85]
- Activity of HBV inhibition IC50 (HBV): 0.01 µg/mL
- Activity of HIV inhibition IC50 (HIV-1): 0.78 µg/mL

SMILES: COc1cccc(CCNC2=C3CC(C)CC(OC)C(O)C(C)C=C(C)C(OC(N)=O)C(OC)C=CC=C(C)C(=O)NC(=CC2=O)C3=O)c1 (stereo not shown) [GM-W87]
- Activity of HBV inhibition IC50 (HBV): 0.064 µg/mL
- Activity of HIV inhibition IC50 (HIV-1): 0.39 µg/mL

SMILES: COC1C=CC=C(C)C(=O)NC2=CC(=O)C(NCc3ccc(C)o3)=C(CC(C)CC(OC)C(O)C(C)C=C(C)C1OC(N)=O)C2=O (stereo not shown) [GM-W88]
- Activity of HBV inhibition IC50 (HBV): 0.08 µg/mL
- Activity of HIV inhibition IC50 (HIV-1): 0.24 µg/mL

SMILES: COC1C=CC=C(C)C(=O)NC2=CC(=O)C(NC(C)Cc3c[nH]c4ccccc34)=C(CC(C)CC(OC)C(O)C(C)C=C(C)C1OC(N)=O)C2=O (stereo not shown) [GM-W89]
- Activity of HBV inhibition IC50 (HBV): 2.36 µg/mL
- Activity of HIV inhibition IC50 (HIV-1): 1.68 µg/mL

SMILES: COC1C=CC=C(C)C(=O)NC2=CC(=O)C(NCCc3c[nH]c4ccccc34)=C(CC(C)CC(OC)C(O)C(C)C=C(C)C1OC(N)=O)C2=O (stereo not shown) [GM-W90]
- Activity of HBV inhibition IC50 (HBV): 0.93 µg/mL
- Activity of HIV inhibition IC50 (HIV-1): 1.23 µg/mL

SMILES: COC1C=CC=C(C)C(=O)NC2=C(NCC3CCCO3)C(=O)C(NCC3CCCO3)=C(CC(C)CC(OC)C(O)C(C)C=C(C)C1OC(N)=O)C2=O [THFM + 2, 17,19-di-(S)-tetrahydrofurfuryl amino-17-demethoxy geldanamycin]
- Activity of HBV inhibition IC50 (HBV): 0.10 µg/mL
- Activity of HIV inhibition IC50 (HIV-1): 0.18 µg/mL

SMILES: CO[C@H]1/C=C/C=C(\C)C(=O)NC2=CC(=O)C(NC[C@H]3CCCO3)=C(C[C@H](C)C[C@H](OC)[C@H](O)[C@@H](C)/C=C(\C)[C@H]1OC(N)=O)C2=O [THFM(R)-GM, 2′R-17-tetrahydrofurfurylamino-17-demethoxy geldanamycin]
- Activity of HBV inhibition IC50 (HBV): 0.01 µg/mL
- Activity of HIV inhibition IC50 (HIV-1): 0.05 µg/mL

SMILES: CO[C@H]1/C=C\C=C(/C)C(=O)NC2=CC(=O)C(NC[C@@H]3CCCO3)=C(C[C@@H](C)C[C@H](OC)[C@H](O)[C@@H](C)/C=C(\C)[C@@H]1OC(N)=O)C2=O [THFM(S)-GM, 2′S-17-tetrahydrofurfurylamino-17-demethoxy geldanamycin]
- Activity of HBV inhibition IC50 (HBV): 0.032 µg/mL
- Activity of HIV inhibition IC50 (HIV-1): 0.06 µg/mL

SMILES: COC1C=CC=C(C)C(=O)NC2=C(NCC3CCCO3)C(=O)C(NCC3CCCO3)=C(CC(C)CC(OC)C(O)C(C)C=C(C)C1OC(N)=O)C2=O (stereo not shown) [THFM-GM2]
- Activity of HBV inhibition IC50 (HBV): 0.064 µg/mL
- Activity of HIV inhibition IC50 (HIV-1): 0.24 µg/mL

SMILES: CO[C@H]1/C=C\C=C(/C)C(=O)NC2=CC(=O)C(NCC3CCCO3)=C(C[C@@H](C)C[C@H](OC)[C@H](O)[C@@H](C)/C=C(\C)[C@@H]1OC(N)=O)C2=O (stereo partly shown) [THFM-GM, 17-tetrahydrofurfurylamino-17-demethoxy geldanamycin]
- Activity of HBV inhibition IC50 (HBV): 0.01 µg/mL
- Activity of HIV inhibition IC50 (HIV-1): 0.14 µg/mL

SMILES: CO[C@H]1/C=C/C=C(\C)C(=O)NC2=C(NC[C@H]3CCCO3)C(=O)C(NC[C@H]3CCCO3)=C(C[C@H](C)C[C@H](OC)[C@H](O)[C@@H](C)/C=C(\C)[C@H]1OC(N)=O)C2=O [THFM-II, 17,19-di-(R)-tetrahydrofurfuryl amino-17-demethoxy geldanamycin]
- Activity of HBV inhibition IC50 (HBV): 0.013 µg/mL
- Activity of HIV inhibition IC50 (HIV-1): >22.2 µg/mL
